Source: US11691980B2, “Liphagal analog and multi-targeted kinase inhibitor containing liphagal or analog thereof” (TOHOKU UNIVERSITY, priority 2017, dated 2023)

Assays:
Type in all cases: biochemical
TYRO3 = target: T1, TYRO3 (Homo sapiens, UniProt Q06418); test: mobility shift assay
T1 construct: purchased Carna Biosciences

PKD1 = target: T2, PKD1 (Homo sapiens, UniProt Q15139); test: mobility shift assay
T2 construct: purchased Carna Biosciences

EPHB4 = target: T3, EPHB4 (Homo sapiens, UniProt P54760); test: mobility shift assay
T3 construct: purchased Carna Biosciences

PKD3 = target: T4, PKD3 (Homo sapiens, UniProt O94806); test: mobility shift assay
T4 construct: purchased Carna Biosciences

IRR = target: T5, IRR (Homo sapiens, UniProt P14616); test: mobility shift assay
T5 construct: purchased Carna Biosciences

BRAF_Cascade = target: T6, BRAF_Cascade (Homo sapiens, UniProt P15056); test: mobility shift assay
T6 construct: purchased Carna Biosciences

MAP3K5_Cascade = target: T7, MAP3K5_Cascade (Homo sapiens, UniProt Q99683); test: mobility shift assay
T7 construct: purchased Carna Biosciences

MET(M125DT) = target: T8, MET(M125DT) (Homo sapiens, UniProt P08581, M1250T); test: mobility shift assay
T8 construct: purchased Carna Biosciences

AKT2 = target: T9, AKT2 (Homo sapiens, UniProt P31751); test: mobility shift assay
T9 construct: purchased Carna Biosciences

CKIα = target: T10, CKIα (Homo sapiens, UniProt P48729); test: mobility shift assay
T10 construct: purchased Carna Biosciences

QIK = target: T11, QIK (Homo sapiens, UniProt Q9H0K1); test: mobility shift assay
T11 construct: purchased Carna Biosciences

MARK3 = target: T12, MARK3 (Homo sapiens, UniProt P27448); test: mobility shift assay
T12 construct: purchased Carna Biosciences

NDR1 = target: T13, NDR1 (Homo sapiens, UniProt Q15208); test: mobility shift assay
T13 construct: purchased Carna Biosciences

HER4 = target: T14, HER4 (Homo sapiens, UniProt Q15303); test: mobility shift assay
T14 construct: purchased Carna Biosciences

KKε = target: T15, KKε (Homo sapiens, UniProt Q14164); test: mobility shift assay
T15 construct: purchased Carna Biosciences

BLK = target: T16, BLK (Homo sapiens, UniProt P51451); test: mobility shift assay
T16 construct: purchased Carna Biosciences

CaMK1α = target: T17, CaMK1α (Homo sapiens, UniProt Q14012); test: mobility shift assay
T17 construct: purchased Carna Biosciences

MSK2 = target: T18, MSK2 (Homo sapiens, UniProt O75676); test: mobility shift assay
T18 construct: purchased Carna Biosciences

CDK9/CvcT1 = target: T19, CDK9/CvcT1 (Homo sapiens, UniProt P50750); test: mobility shift assay
T19 construct: purchased Carna Biosciences

CLK3 = target: T20, CLK3 (Homo sapiens, UniProt P49761); test: mobility shift assay
T20 construct: purchased Carna Biosciences

PDHK2 = target: T21, PDHK2 (Homo sapiens, UniProt Q15119); test: mobility shift assay
T21 construct: purchased Carna Biosciences

TNK1 = target: T22, TNK1 (Homo sapiens, UniProt Q13470); test: mobility shift assay
T22 construct: purchased Carna Biosciences

TIE2 = target: T23, TIE2 (Homo sapiens, UniProt Q02763); test: mobility shift assay
T23 construct: purchased Carna Biosciences

EGFR(L858R) = target: T24, EGFR(L858R) (Homo sapiens, UniProt P00533, L858R); test: mobility shift assay
T24 construct: purchased Carna Biosciences

GSK3β = target: T25, GSK3β (Homo sapiens, UniProt P49841); test: mobility shift assay
T25 construct: purchased Carna Biosciences

ALK(L1196M) = target: T26, ALK(L1196M) (Homo sapiens, UniProt Q9UM73, L1196M); test: mobility shift assay
T26 construct: purchased Carna Biosciences

INSR = target: T27, INSR (Homo sapiens, UniProt P06213); test: mobility shift assay
T27 construct: purchased Carna Biosciences

FGFR1(V561M) = target: T28, FGFR1(V561M) (Homo sapiens, UniProt P11362, V561M); test: mobility shift assay
T28 construct: purchased Carna Biosciences

MAP3K4_Cascade = test: mobility shift assay; details: 10 μM
RSK2 = target: T29, RSK2 (Homo sapiens, UniProt P51812); test: mobility shift assay
T29 construct: purchased Carna Biosciences

IKKα = target: T30, IKKα (Homo sapiens, UniProt O15111); test: IMAP Assay
T30 construct: purchased Carna Biosciences

JNK3 = target: T31, JNK3 (Homo sapiens, UniProt P53779); test: mobility shift assay
T31 construct: purchased Carna Biosciences

DYRK3 = target: T32, DYRK3 (Homo sapiens, UniProt O43781); test: mobility shift assay
T32 construct: purchased Carna Biosciences

SGK3 = target: T33, SGK3 (Homo sapiens, UniProt Q96BR1); test: mobility shift assay
T33 construct: purchased Carna Biosciences

PKCγ = target: T34, PKCγ (Homo sapiens, UniProt P05129); test: mobility shift assay
T34 construct: purchased Carna Biosciences

CHK2 = target: T35, CHK2 (Homo sapiens, UniProt O96017); test: mobility shift assay
T35 construct: purchased Carna Biosciences

Erk5 = target: T36, Erk5 (Homo sapiens, UniProt Q13164); test: mobility shift assay
T36 construct: purchased Carna Biosciences

PKCα = target: T37, PKCα (Homo sapiens, UniProt P17252); test: mobility shift assay
T37 construct: purchased Carna Biosciences

MAP2K3_Cascade = target: T38, MAP2K3_Cascade (Homo sapiens, UniProt P46734); test: mobility shift assay
T38 construct: purchased Carna Biosciences

MLK3_Cascade = target: T39, MLK3_Cascade (Homo sapiens, UniProt Q16584); test: mobility shift assay
T39 construct: purchased Carna Biosciences

CaMK2β = target: T40, CaMK2β (Homo sapiens, UniProt Q13554); test: mobility shift assay
T40 construct: purchased Carna Biosciences

MST3 = target: T41, MST3 (Homo sapiens, UniProt Q9Y6E0); test: mobility shift assay
T41 construct: purchased Carna Biosciences

T32 sequence (O43781 whole entry): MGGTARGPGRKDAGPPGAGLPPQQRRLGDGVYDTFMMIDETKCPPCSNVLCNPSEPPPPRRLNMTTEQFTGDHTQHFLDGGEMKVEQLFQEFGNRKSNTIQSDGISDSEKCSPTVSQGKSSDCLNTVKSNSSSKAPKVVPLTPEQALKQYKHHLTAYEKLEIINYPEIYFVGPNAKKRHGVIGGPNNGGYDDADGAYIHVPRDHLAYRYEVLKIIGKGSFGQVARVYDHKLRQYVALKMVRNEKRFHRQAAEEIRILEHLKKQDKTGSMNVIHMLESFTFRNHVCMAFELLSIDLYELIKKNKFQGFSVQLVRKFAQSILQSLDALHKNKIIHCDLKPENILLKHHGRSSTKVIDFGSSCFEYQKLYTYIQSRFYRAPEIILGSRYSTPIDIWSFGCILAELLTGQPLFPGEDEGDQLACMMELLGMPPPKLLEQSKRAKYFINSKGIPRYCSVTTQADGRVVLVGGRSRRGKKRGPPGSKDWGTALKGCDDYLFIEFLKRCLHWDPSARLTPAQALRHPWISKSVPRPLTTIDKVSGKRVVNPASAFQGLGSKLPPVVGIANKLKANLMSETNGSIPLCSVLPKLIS
T8 sequence (P08581 956-1390 M1250T limits assumed): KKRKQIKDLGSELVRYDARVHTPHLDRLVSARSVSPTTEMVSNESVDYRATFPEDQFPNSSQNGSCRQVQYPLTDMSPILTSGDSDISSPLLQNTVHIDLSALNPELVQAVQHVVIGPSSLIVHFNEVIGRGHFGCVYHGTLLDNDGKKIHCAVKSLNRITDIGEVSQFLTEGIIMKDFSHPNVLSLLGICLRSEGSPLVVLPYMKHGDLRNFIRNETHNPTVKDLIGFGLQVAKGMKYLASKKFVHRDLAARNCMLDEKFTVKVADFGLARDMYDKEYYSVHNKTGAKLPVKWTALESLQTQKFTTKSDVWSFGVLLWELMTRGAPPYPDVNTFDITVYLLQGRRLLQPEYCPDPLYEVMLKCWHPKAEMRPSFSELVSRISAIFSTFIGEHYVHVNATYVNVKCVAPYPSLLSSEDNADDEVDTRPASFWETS
T5 sequence (P14616 27-1297): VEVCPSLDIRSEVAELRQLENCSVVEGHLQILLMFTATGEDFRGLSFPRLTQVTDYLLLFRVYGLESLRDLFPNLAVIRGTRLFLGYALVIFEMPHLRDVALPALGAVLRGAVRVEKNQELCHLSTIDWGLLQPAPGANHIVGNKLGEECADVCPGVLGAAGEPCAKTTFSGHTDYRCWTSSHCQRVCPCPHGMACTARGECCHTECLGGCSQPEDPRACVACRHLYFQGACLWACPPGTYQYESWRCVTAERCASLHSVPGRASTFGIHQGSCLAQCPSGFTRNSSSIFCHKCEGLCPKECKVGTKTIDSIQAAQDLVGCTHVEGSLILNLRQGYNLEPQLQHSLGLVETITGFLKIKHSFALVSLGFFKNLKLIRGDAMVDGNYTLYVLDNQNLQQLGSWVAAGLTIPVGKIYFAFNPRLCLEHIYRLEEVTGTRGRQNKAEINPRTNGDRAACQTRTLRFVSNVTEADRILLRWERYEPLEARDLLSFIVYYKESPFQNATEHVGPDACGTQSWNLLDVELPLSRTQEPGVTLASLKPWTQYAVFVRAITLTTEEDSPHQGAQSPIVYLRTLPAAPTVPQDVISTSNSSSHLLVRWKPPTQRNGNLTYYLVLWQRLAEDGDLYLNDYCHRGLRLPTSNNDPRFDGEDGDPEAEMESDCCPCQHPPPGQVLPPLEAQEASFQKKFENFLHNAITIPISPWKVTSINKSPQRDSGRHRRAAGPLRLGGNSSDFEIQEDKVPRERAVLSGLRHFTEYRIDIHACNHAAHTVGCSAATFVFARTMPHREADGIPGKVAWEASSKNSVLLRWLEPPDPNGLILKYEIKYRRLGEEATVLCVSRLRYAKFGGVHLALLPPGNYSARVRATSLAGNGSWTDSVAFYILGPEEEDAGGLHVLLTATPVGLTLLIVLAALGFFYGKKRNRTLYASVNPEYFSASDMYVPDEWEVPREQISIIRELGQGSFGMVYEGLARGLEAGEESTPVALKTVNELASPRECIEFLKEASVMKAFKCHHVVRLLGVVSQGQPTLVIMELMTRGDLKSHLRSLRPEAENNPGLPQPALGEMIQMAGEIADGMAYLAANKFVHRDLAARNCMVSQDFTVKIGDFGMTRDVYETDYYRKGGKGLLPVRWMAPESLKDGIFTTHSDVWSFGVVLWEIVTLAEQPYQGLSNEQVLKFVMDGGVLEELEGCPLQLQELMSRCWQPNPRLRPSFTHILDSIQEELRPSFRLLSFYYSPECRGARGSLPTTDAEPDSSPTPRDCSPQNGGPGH
T4 sequence (O94806 whole entry): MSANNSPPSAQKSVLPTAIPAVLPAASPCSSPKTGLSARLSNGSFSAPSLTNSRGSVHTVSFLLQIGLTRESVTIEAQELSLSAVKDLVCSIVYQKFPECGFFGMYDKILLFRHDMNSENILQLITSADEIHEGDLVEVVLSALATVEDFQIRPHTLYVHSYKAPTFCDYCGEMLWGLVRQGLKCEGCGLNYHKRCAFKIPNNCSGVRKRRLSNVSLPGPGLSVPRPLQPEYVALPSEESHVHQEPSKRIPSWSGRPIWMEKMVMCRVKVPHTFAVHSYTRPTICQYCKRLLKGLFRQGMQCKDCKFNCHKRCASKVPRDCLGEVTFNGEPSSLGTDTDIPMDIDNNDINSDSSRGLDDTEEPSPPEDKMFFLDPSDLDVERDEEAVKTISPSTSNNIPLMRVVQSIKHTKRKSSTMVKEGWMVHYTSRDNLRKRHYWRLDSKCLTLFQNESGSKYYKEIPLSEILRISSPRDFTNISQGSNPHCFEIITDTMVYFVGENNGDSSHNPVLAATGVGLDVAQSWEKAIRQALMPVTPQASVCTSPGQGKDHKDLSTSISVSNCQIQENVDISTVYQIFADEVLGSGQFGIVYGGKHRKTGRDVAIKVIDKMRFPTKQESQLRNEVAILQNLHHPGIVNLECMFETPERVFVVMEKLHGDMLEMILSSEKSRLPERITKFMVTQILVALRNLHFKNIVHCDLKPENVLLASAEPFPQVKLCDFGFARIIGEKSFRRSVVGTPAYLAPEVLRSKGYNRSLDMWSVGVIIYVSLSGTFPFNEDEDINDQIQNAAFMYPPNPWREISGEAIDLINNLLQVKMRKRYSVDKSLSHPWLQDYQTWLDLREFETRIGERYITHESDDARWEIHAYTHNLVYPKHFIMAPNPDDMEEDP
T7 sequence (Q99683 whole entry): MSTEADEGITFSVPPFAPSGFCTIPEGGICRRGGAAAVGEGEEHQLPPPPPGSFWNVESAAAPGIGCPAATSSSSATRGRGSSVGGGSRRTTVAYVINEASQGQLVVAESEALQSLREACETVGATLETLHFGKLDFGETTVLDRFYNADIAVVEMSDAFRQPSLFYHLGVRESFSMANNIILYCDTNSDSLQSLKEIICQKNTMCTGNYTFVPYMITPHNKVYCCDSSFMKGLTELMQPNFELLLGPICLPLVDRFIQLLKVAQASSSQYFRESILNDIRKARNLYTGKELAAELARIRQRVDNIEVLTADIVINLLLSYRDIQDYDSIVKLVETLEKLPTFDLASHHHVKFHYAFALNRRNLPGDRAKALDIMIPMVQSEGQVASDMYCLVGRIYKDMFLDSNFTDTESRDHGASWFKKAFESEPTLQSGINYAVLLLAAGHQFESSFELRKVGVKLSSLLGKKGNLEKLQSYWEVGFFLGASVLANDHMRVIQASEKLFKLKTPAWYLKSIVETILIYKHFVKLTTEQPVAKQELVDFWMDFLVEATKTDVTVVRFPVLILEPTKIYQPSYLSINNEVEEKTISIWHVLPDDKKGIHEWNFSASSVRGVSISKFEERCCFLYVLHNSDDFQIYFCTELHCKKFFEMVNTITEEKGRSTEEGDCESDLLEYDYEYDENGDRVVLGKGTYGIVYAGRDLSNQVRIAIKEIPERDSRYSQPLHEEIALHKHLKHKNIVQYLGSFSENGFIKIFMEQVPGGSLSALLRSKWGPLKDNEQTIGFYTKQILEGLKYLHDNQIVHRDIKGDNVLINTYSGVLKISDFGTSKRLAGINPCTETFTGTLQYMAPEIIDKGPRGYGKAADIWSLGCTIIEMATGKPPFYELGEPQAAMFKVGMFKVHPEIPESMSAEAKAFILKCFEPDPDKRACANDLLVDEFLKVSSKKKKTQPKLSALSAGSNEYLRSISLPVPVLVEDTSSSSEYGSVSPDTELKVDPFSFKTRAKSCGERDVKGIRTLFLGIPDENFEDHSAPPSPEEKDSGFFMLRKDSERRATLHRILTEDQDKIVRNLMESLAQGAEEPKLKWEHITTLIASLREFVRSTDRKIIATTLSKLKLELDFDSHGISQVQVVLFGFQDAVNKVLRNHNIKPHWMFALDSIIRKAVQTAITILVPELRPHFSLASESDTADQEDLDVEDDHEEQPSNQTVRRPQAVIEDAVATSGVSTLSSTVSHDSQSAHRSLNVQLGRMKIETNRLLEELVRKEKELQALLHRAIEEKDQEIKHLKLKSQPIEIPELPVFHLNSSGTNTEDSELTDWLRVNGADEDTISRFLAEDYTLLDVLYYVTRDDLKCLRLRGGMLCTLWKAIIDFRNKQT
T35 sequence (O96017 whole entry): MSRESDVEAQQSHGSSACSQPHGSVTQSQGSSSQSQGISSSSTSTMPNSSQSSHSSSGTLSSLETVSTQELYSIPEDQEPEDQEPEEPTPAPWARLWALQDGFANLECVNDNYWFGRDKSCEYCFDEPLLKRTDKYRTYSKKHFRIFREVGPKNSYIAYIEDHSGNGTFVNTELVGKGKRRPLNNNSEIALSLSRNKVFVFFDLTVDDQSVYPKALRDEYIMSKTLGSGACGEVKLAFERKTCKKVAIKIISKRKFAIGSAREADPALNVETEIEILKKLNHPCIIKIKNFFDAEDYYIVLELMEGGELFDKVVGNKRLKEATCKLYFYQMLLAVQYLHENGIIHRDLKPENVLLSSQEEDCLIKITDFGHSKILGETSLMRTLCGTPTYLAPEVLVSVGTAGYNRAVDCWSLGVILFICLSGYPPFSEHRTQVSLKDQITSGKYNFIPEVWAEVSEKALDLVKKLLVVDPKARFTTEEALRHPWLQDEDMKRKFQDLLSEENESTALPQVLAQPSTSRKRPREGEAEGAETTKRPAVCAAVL

With `C[C@@H]1CC[C@H]2C(C)(C)CCC[C@]2(C)c2c1oc1c(C=O)c(O)c(O)cc21` [LG-1, liphagal] the inhibition at 10 µM (TYRO3) was -6.6%, the inhibition at 10 µM (PKD1) was 4.2% and the inhibition at 10 µM (EPHB4) was -1.2%. For the same compound, the inhibition at 10 µM (PKD3) was 2.7%, the inhibition at 10 µM (IRR) was 23.1% and the inhibition at 10 µM (BRAF_Cascade) was 15%. It also gave an inhibition at 10 µM (MAP3K5_Cascade) of 38%, an inhibition at 10 µM (MET(M125DT)) of -0.2% and an inhibition at 10 µM (AKT2) of 6.2%. It also gave an inhibition at 10 µM (CKIα) of 20.5%, an inhibition at 10 µM (QIK) of 2.7% and an inhibition at 10 µM (MARK3) of -2.9%. It also gave an inhibition at 10 µM (NDR1) of 2.6%, an inhibition at 10 µM (HER4) of 17.9% and an inhibition at 10 µM (KKε) of -6.3%. It also gave an inhibition at 10 µM (BLK) of 29.4%, an inhibition at 10 µM (CaMK1α) of 25.7% and an inhibition at 10 µM (MSK2) of -11.7%. For the same compound, the inhibition at 10 µM (CDK9/CvcT1) was 18.8%, the inhibition at 10 µM (CLK3) was 5.7% and the inhibition at 10 µM (PDHK2) was 47.2%. The inhibition at 10 µM (TNK1) was 5.1%, the inhibition at 10 µM (TIE2) was 11.7% and the inhibition at 10 µM (EGFR(L858R)) was 4.2%. The inhibition at 10 µM (GSK3β) was 25.3%, the inhibition at 10 µM (ALK(L1196M)) was -1.5% and the inhibition at 10 µM (INSR) was 14.1%. For the same compound, the inhibition at 10 µM (FGFR1(V561M)) was -12.6%, the “% Inhibition” value (MAP3K4_Cascade) was 62.9% and the inhibition at 10 µM (RSK2) was 14.5%. For the same compound, the inhibition at 10 µM (IKKα) was 34.4%, the inhibition at 10 µM (JNK3) was -5.8% and the inhibition at 10 µM (DYRK3) was 39.2%. The inhibition at 10 µM (SGK3) was -0.5%, the inhibition at 10 µM (PKCγ) was -1.9% and the inhibition at 10 µM (CHK2) was 26.5%. The inhibition at 10 µM (Erk5) was 0.6%, the inhibition at 10 µM (PKCα) was -8% and the inhibition at 10 µM (MAP2K3_Cascade) was 25.6%. For the same compound, the inhibition at 10 µM (MLK3_Cascade) was 19.5%, the inhibition at 10 µM (CaMK2β) was 1.9% and the inhibition at 10 µM (MST3) was 62.7%.
